PubChem BioAssay (NCI)
Values joined by “and” are separate entries in the source; they are usually repeats but may differ in a detail not shown here. Equal entries are not always repeated.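 Cells were grown in 96-well plates and exposed to each compound for 48 hours at five concentrations; endpoints were interpolated linearly between bracketing concentrations, or set to the highest concentration if not reached. GI50 = concentration required for 50% inhibition of growth. TGI: concentration producing complete growth inhibition.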

Experiments:
Experiment in all cases: NCI tumour cell line growth inhibition, 48 h
A498 renal = system: A498 renal
MDA-MB-231 breast = system: MDA-MB-231 breast
MOLT-4 leukemia = system: MOLT-4 leukemia
OVCAR-3 ovarian = system: OVCAR-3 ovarian
OVCAR-5 ovarian = system: OVCAR-5 ovarian
SK-OV-3 ovarian = system: SK-OV-3 ovarian
SN12C renal = system: SN12C renal
SNB-19 CNS = system: SNB-19 CNS
SR leukemia = system: SR leukemia
SW-620 colon = system: SW-620 colon

Row | Structure (SMILES) | GI50 (A498 renal) | TGI (A498 renal) | GI50 (MDA-MB-231 breast) | TGI (MDA-MB-231 breast) | GI50 (MOLT-4 leukemia) | TGI (MOLT-4 leukemia) | GI50 (OVCAR-3 ovarian) | TGI (OVCAR-3 ovarian) | GI50 (OVCAR-5 ovarian) | TGI (OVCAR-5 ovarian) | GI50 (SK-OV-3 ovarian) | TGI (SK-OV-3 ovarian) | GI50 (SN12C renal) | TGI (SN12C renal) | GI50 (SNB-19 CNS) | TGI (SNB-19 CNS) | GI50 (SR leukemia) | TGI (SR leukemia) | GI50 (SW-620 colon) | TGI (SW-620 colon)
1 | CCSc1ccc(C2C(Br)C(=O)N2c2cc(OC)c(OC)c(OC)c2)cc1 (stereo not given) | 0.103 µM | 0.74 µM | 0.488 µM | 95.3 µM | 0.347 µM | 88.9 µM | 0.109 µM | 0.73 µM | 0.431 µM | 15.8 µM | 0.392 µM | > 100 µM | 0.925 µM | 21 µM | 0.44 µM | > 100 µM | 0.0765 µM | 26.3 µM | 0.236 µM | 20.3 µM
2 | N#CC1C=Cc2c(ccc3ccccc23)N1C(=O)c1ccccc1 (stereo not given) | 0.139 µM | 2.48 µM | 0.763 µM | > 100 µM | 0.421 µM | > 100 µM | 0.167 µM | 0.574 µM | 0.519 µM | > 100 µM | 0.311 µM | 29.7 µM | 1.15 µM | > 100 µM | 0.524 µM | > 100 µM | 0.1 µM |  | 0.0657 µM | > 75.2 µM
3 | Nc1ncc(-c2cccc(S(N)(=O)=O)c2)c2scc(-c3ccc(F)c(Cl)c3)c12 | 5.73 µM | 15.4 µM | 5.94 µM | > 25 µM | 5.35 µM | > 19.2 µM | 5.42 µM | 12.5 µM | 9.09 µM | > 22.2 µM | 5.14 µM | > 17.6 µM | 5.74 µM | > 23.2 µM | 10.6 µM | > 25 µM | 7.12 µM | > 15.9 µM | 6.21 µM | 14.3 µM
4 | C=CC(COC(c1ccccc1)(c1ccccc1)c1ccccc1)N(CC)CC (stereo not given) | 8.25 µM | 23.5 µM | 3.35 µM | 13.5 µM | 3.02 µM | 11.6 µM | 7.04 µM | 20.3 µM | 6.66 µM | 22.1 µM | 8.12 µM | 21.4 µM | 7.97 µM | 24.5 µM | 10.1 µM | 25.3 µM | 2.13 µM | 5.29 µM | 2.32 µM | 7.95 µM
5 | Cc1coc2c1C(OC(=O)C(C)C)C1(C)C(C)CCC(O)C1C2=O (stereo not given) |  | > 100 µM |  | > 100 µM |  | > 100 µM |  | > 100 µM |  | > 100 µM |  | > 100 µM |  | > 100 µM |  |  |  | > 100 µM |  | > 100 µM
6 | Nc1c(C(=O)Nc2cccc(Cl)c2Cl)sc2nc3c(cc12)C(=O)CCC3 | 0.399 µM | 9.33 µM | > 100 µM | > 100 µM | > 100 µM | > 100 µM | > 100 µM | > 100 µM | > 100 µM | > 100 µM | 3.8 µM | > 100 µM | > 100 µM | > 100 µM | 4.64 µM | > 100 µM | > 100 µM | > 100 µM | 61.2 µM | > 100 µM
7 | COc1cccc2c1n([O-])c1cccc(OC)c1[n+]2=O | 16.4 µM | > 100 µM | 20.9 µM | > 100 µM | 4.97 µM | > 100 µM | 17.6 µM | > 100 µM | 9.71 µM | 27.3 µM | 10.5 µM | 28.9 µM | 6.85 µM | > 100 µM |  |  | 0.897 µM | 9.36 µM | 4.91 µM | 21.7 µM
8 | NC(=S)NN=C1CSSC1 | 1.95 µM | 6.03 µM | 1.77 µM | 9.86 µM | 3.75 µM | 43 µM | 2.54 µM | 10.5 µM | 5.26 µM | 40.9 µM | 5.25 µM | 25.1 µM | 4.67 µM | > 100 µM | 2.46 µM | 11.4 µM | 2.79 µM | > 100 µM | 8.06 µM | > 100 µM
9 | Cn1cc(C2=C(N3CCOCC3)C(=O)NC2=O)c2ccccc21 | > 25 µM | > 25 µM | > 25 µM | > 25 µM | > 25 µM | > 25 µM | > 25 µM | > 25 µM | > 25 µM | > 25 µM | > 25 µM | > 25 µM | > 25 µM | > 25 µM | > 25 µM | > 25 µM | > 25 µM | > 25 µM | > 25 µM | > 25 µM
10 | O=C1C(Cl)=C(Nc2cccc(O)c2)C(=O)N1Cc1ccc(Cl)cc1Cl | 1.57 µM | 10.2 µM | 1.17 µM | 11 µM | 3.22 µM | 19.2 µM | 12.1 µM | 26.4 µM | 11.7 µM | 29.2 µM | 9.43 µM | 23.7 µM | 2.67 µM | 15.1 µM | 3.39 µM | 33.8 µM | 1.88 µM | 11.9 µM | 0.565 µM | 15.7 µM
11 | Cc1cc(C(=O)c2ccccc2)c(C)c2c1[nH]c1ccc(Cl)cc12 | 0.0305 µM | 0.282 µM | 0.255 µM | 5.71 µM | 0.103 µM | > 54.2 µM | 0.0426 µM | 9.8 µM | 0.294 µM | 28 µM | 0.35 µM | > 50.6 µM | 0.117 µM | 14.3 µM | 0.0541 µM | 35.1 µM | 0.0383 µM | > 63.4 µM | 0.0497 µM | > 100 µM
12 | O=C(NC(=O)c1ccccc1[N+](=O)[O-])Nc1ccc(Oc2ncc(Cl)cn2)c(C(F)(F)F)c1 |  | 1.29 µM |  | 2.6 µM |  | > 69.1 µM |  | 0.838 µM |  | 80.4 µM |  | > 46.5 µM |  | 62.9 µM |  | 85.7 µM |  | > 100 µM |  | > 11.9 µM
13 | Cc1ccc(-c2cc(O)c(-c3ccc(C)cc3C)cc2O)c(C)c1 | 5.32 µM | 18 µM | 3.94 µM | 21 µM | 6.23 µM | > 100 µM | 7.17 µM | 22.4 µM | 18 µM | 33.5 µM | 11 µM | 27.3 µM | 5.38 µM | 18.8 µM | 10.9 µM | 30.9 µM | 3.57 µM | 74.9 µM | 5.64 µM | 18.5 µM
14 | O=C(CCc1ccc(O)cc1)N/N=C/c1cc(Br)ccc1O | 9.81 µM | 49.6 µM | 4.45 µM | 53.6 µM | 2.41 µM | 11.2 µM | 4.03 µM | 23.6 µM | 6.77 µM | > 100 µM | 6.35 µM | > 100 µM | 4.76 µM | 73.6 µM | 6.51 µM | > 100 µM | 2.52 µM | 9.66 µM | 3.83 µM | > 100 µM
15 | CC(C)(C)c1ccc(NS(=O)(=O)c2ccc3nc(NC(=O)c4cnccn4)[nH]c3c2)cc1 | 1.75 µM | 5.98 µM | 4.34 µM | 17.1 µM | 5 µM | 57.4 µM | 0.654 µM | 3.03 µM | 5.61 µM | 19 µM |  |  | 3.85 µM | 15.9 µM | 3.31 µM | 18.3 µM | 0.68 µM | > 100 µM | 2.37 µM | 14.4 µM
16 | CC[C@H](C)C(=O)O[C@H]1C[C@H](O)C=C2C=C[C@H](C)[C@H](CC[C@@H](O)C[C@@H](O)CC(=O)O)[C@H]21 | 11.6 µM | > 100 µM | > 100 µM | > 100 µM | > 100 µM | > 100 µM | > 100 µM | > 100 µM | > 100 µM | > 100 µM | > 100 µM | > 100 µM | > 100 µM | > 100 µM | > 100 µM | > 100 µM | > 100 µM | > 100 µM | > 100 µM | > 100 µM
17 | C[C@@H]1COCCN1c1cc(C2(O)C[C@H]3CC[C@@H](C2)O3)c2cnn(-c3ccn[nH]3)c2n1 (stereo not given in full) | 0.0221 µM | 0.13 µM | 0.138 µM | 5.68 µM | 0.0437 µM | > 67.3 µM | 0.0874 µM | 0.862 µM | 0.0977 µM |  | 0.0992 µM | 4.03 µM | 0.143 µM | 4.09 µM | 0.166 µM | 1.74 µM | 0.0112 µM | 26.9 µM | 0.187 µM | > 37.7 µM
18 | O=[N+]([O-])c1cccc2nccc(NCCCO)c12 |  | 23.6 µM |  | 41.4 µM |  | 45.1 µM |  | 35.3 µM |  | 35.6 µM |  | 61 µM |  | 28 µM |  | 69.5 µM |  | 44.2 µM |  | 27.6 µM
19 | O=C(O)Cn1cc([N+](=O)[O-])c(=O)c2ccccc21 |  | > 100 µM |  | 32.9 µM |  | > 100 µM |  | > 100 µM |  | > 100 µM |  | > 100 µM |  | > 100 µM |  | > 100 µM |  | > 100 µM |  | > 100 µM
20 | CNCCN=c1ccc2c3c1c(O)c1c(O)ccc(=O)c1c3[nH]n2CCNCCO | 0.102 µM and 0.405 µM | 1.14 µM and 5.15 µM | 0.97 µM and 0.504 µM | 5.45 µM and 9.63 µM |  |  | 1.16 µM | 3.99 µM and 5.12 µM | 0.9 µM | 3.36 µM and 11.5 µM | 0.137 µM and 0.162 µM | 3.25 µM and 5.72 µM | 0.0859 µM | 2.41 µM and 2.39 µM | 0.0308 µM and 0.11 µM |  |  | 3.25 µM |  | 
21 | Cc1ccc(Sc2cc3c(oc2=O)-c2ccccc2OC3O)cc1 (stereo not given) | 26.1 µM | 51.5 µM | 28.8 µM | 71.2 µM | 13.3 µM | 34.2 µM | 33.3 µM | 91.4 µM | 23.9 µM | 49 µM |  |  | 29.4 µM | 73.3 µM | 25 µM | 62.1 µM | 18.4 µM | 46.3 µM | 22.4 µM | 52.3 µM
